From patent US7816522B2, “Triazolone derivatives” (Eisai Co., Ltd., priority 2006, dated 2010) come the findings set out here.

Structures can show the parent of a compound that is named as a salt.

T1 sequence (P08709 213-466 limits assumed): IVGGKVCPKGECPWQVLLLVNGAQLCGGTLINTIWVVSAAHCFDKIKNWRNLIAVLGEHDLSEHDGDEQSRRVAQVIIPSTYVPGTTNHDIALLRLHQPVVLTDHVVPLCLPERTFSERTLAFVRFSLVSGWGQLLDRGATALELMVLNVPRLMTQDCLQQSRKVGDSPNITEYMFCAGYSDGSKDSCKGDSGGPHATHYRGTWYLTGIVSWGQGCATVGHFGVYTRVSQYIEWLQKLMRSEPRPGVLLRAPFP
T1 sequence (P08709 61-212 limits assumed): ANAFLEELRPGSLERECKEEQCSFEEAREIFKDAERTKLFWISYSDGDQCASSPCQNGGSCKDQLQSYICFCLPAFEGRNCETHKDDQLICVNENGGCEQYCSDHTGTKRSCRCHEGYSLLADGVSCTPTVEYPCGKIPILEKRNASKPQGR
T1 sequence (P13726 33-295 partner): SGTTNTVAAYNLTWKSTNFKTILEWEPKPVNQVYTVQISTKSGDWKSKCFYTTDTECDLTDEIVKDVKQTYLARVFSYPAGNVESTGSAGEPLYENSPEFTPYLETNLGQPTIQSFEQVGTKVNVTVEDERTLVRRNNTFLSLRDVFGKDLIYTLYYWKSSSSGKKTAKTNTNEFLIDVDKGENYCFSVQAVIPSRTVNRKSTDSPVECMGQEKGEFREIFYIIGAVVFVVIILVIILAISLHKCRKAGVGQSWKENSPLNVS

The test addresses T1, human clotting factor VIIa (Homo sapiens, UniProt P08709).
T1 construct: a human clotting factor VIIa (hereinafter, “Factor VIIa”) purified sample; purchased Enzyme Research Laboratories HFVIIa
The test is described as follows: Inhibitory activity against clotting factor VIIa (chromogenic substrate Spectrozyme FVIIa, TF/Factor VIIa enzyme solution). The test is classed as biochemical. The following applies: human Factor VIIa 5 nmol/L with human TF 10 nmol/L, room temperature 40 minutes, 405 nm. Summed up: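 Human Factor VIIa (5 nmol/L) with human TF (10 nmol/L) in Tris-BSA buffer pH 7.4 containing 15 mmol/L CaCl2 and cephalin, with Spectrozyme FVIIa substrate. Reaction 40 min at room temperature; 4-nitroanilide read at 405 nm. IC50 by non-linear regression over 100 μmol/L–0.1 nmol/L.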
On to `COc1cc(C(Nc2ccc(C(=N)N)cc2)c2nn(-c3ncccn3)c(=O)[nH]2)cc2c1OCCO2` (racemic) [Example 20, (R) and (S)-4-{[(8-methoxy-2,3-dihydro-benzo[1,4]dioxin-6-yl)-(5-oxo-1-pyrimidin-2-yl-4,5-dihydro-1H-[1,2,4]triazol-3-yl)methyl]amino}benzamidine acetate], for which the IC50 is 9.7 nM.

`CCc1cc(OCCN(C)C)c(F)c(C(Nc2ccc(C(=N)N)cc2)c2nn(-c3ccccn3)c(=O)[nH]2)c1` (stereo not shown) [Example 140, 4-({[3-(2-dimethylaminoethoxy)-5-ethyl-2-fluorophenyl]-(5-oxo-1-pyridin-2-yl-4,5-dihydro-1H-[1,2,4]triazol-3-yl)methyl}amino)benzamidine bistrifluoroacetate] registered an IC50 of 5.3 nM.

`COc1cc(C(Nc2ccc(C(=N)N)cc2)c2nn(-c3[nH]ncc3C(=O)O)c(=O)[nH]2)c(F)c2c1OCCCO2` (stereo not shown) [Example 196, 5-{3-[(4-Carbamimidoylphenylamino)-(6-fluoro-9-methoxy-3,4-dihydro-2H-benzo[b][1,4]dioxepin-7-yl)methyl]-5-oxo-4,5-dihydro-[1,2,4]triazol-1-yl}-1H-pyrazole-4-carboxylic acid acetate] displayed an IC50 of 17.8 nM.

`CCOc1cc(CF)cc(C(Nc2ccc(C(=N)N)cc2)c2nn(-c3ncccn3)c(=O)[nH]2)c1` (stereo not shown) [Example 84, 4-{[(3-ethoxy-5-fluoromethylphenyl)-(5-oxo-1-pyrimidin-2-yl-4,5-dihydro-1H-[1,2,4]triazol-3-yl)methyl]amino}benzamidine acetate]: the IC50 was 16.9 nM.

As for `COc1ccccc1-n1nc(C(Nc2ccc(C(=N)N)cc2)c2cc3c(c(OC)c2)OCOC3)[nH]c1=O` (racemic) [Example 95, 4-({(R) and (S)-(8-methoxy-4H-benzo[1,3]dioxin-6-yl)-[1-(2-methoxyphenyl)-5-oxo-4,5-dihydro-1H-[1,2,4]triazol-3-yl]methyl}amino)benzamidine acetate], the IC50 came to 1.3 nM.

In turn, `CCOc1cc(C(Nc2ccc(C(=N)N)cc2)c2nn(-c3ncccn3)c(=O)[nH]2)cc2c1OCOC2` (racemic) [Example 28, (R) and (S)-4-{[(8-ethoxy-4H-benzo[1,3]dioxin-6-yl)-(5-oxo-1-pyrimidin-2-yl-4,5-dihydro-1H-[1,2,4]triazol-3-yl)methyl]amino}benzamidine acetate] returned an IC50 of 8.9 nM.

Consider `COc1cc(O[C@@H]2CCOC2)cc(C(Nc2ccc(C(=N)N)cc2)c2nn(-c3ncccn3)c(=O)[nH]2)c1` (mixture of isomers) [Example 5, 4-[((R) and (S)-{3-methoxy-5-[(R)-(tetrahydrofuran-3-yl)oxy]phenyl}-(5-oxo-1-pyrimidin-2-yl-4,5-dihydro-1H-[1,2,4]triazol-3-yl)methyl)amino]benzamidine acetate], for which the IC50 worked out at 4.9 nM.

For `COc1cc(F)c(C(Nc2ccc(C(=N)N)cc2)c2nn(-c3ccccc3C(N)=O)c(=O)[nH]2)cc1OC` (racemic) [Example 109, (R) and (S)-2-{3-[(4-carbamimidoylphenylamino)-(2-fluoro-4,5-dimethoxyphenyl)methyl]-5-oxo-4,5-dihydro-1H-[1,2,4]triazol-1-yl}benzamide acetate], inhibition was half-maximal at 7.9 nM (IC50).

With `CCOc1ccc(C(Nc2ccc(C(=N)N)cc2)c2nn(-c3ncccn3)c(=O)[nH]2)cc1OC` (racemic) [Example 18, (R) and (S)-4-{[(4-ethoxy-3-methoxyphenyl)-(5-oxo-1-pyrimidin-2-yl-4,5-dihydro-1H-[1,2,4]triazol-3-yl)methyl]amino}benzamidine acetate], it took 15.5 nM to reach half-maximal inhibition (IC50).

`COc1cc(O[C@H]2CCOC2)cc(C(Nc2ccc(C(=N)N)cc2)c2nn(-c3ncccn3)c(=O)[nH]2)c1` (mixture of isomers) [Example 4, 4-{[(R) and (S)-{3-methoxy-5-[(S)-(tetrahydrofuran-3-yl)oxy]phenyl}-(5-oxo-1-pyrimidin-2-yl-4,5-dihydro-1H-[1,2,4]triazol-3-yl)methyl]amino}benzamidine acetate] displayed an IC50 of 3 nM.

The compound `COc1cc(C(Nc2ccc(C(=N)N)cc2)c2nn(-c3ncccn3)c(=O)[nH]2)cc(OCCO)c1OC` (racemic) [Example 159, 4-({(R) and (S)-[3-(2-hydroxyethoxy)-4,5-dimethoxyphenyl]-(5-oxo-1-pyrimidin-2-yl-4,5-dihydro-1H-[1,2,4]triazol-3-yl)methyl}amino)benzamidine acetate] had an IC50 of 11.7 nM.

`C#Cc1cc(OCCO)cc(C(Nc2ccc(C(=N)N)cc2)c2nn(-c3ncccn3)c(=O)[nH]2)c1` (racemic) [Example 212, 4-{[[3-Ethynyl-5-(2-hydroxyethoxy)phenyl]-(5-oxo-1-pyrimidin-2-yl-4,5-dihydro-1H-[1,2,4]triazol-3-yl)methyl]amino}benzamidine] came in with an IC50 of 5.7 nM.

As to `COCCOc1cc(OC)cc(C(Nc2ccc(C(=N)N)cc2)c2nn(-c3ncccn3)c(=O)[nH]2)c1F` (racemic) [Example 92, 4-{[(R) and (S)-[2-fluoro-5-methoxy-3-(2-methoxyethoxy)phenyl]-(5-oxo-1-pyrimidin-2-yl-4,5-dihydro-1H-[1,2,4]triazol-3-yl)methyl]amino}benzamidine acetate], the midpoint of inhibition, the IC50, lay at 11.6 nM.

For the compound `COc1cc(C(Nc2ccc(C(=N)N)cc2)c2nn(-c3ncccc3F)c(=O)[nH]2)cc2c1OCCC2` (racemic) [Example 29, (R) and (S)-4-({[1-(3-fluoropyridin-2-yl)-5-oxo-4,5-dihydro-1H-[1,2,4]triazol-3-yl]-(8-methoxychroman-6-yl)methyl}amino)benzamidine acetate], the IC50 is 2.7 nM.

Turning to `COc1cc(C(Nc2ccc(C(=N)N)cc2)c2nn(-c3ncccn3)c(=O)[nH]2)cc2c1OCC2` (racemic) [Example 31, (R) and (S)-4-{[(7-methoxy-2,3-dihydrobenzofuran-5-yl)-(5-oxo-1-pyrimidin-2-yl-4,5-dihydro-1H-[1,2,4]triazol-3-yl)methyl]amino}benzamidine acetate], the IC50 was found to be 7.1 nM.

Consider `COc1cc(C(Nc2ccc(C(=N)N)cc2)c2nn(-c3ccsc3C(=O)O)c(=O)[nH]2)ccc1OCCCO` (racemic) [Example 206, 3-(3-{(R) and (S)-(4-Carbamimidoylphenylamino)-[4-(3-hydroxypropoxy)-3-methoxyphenyl]methyl}-5-oxo-4,5-dihydro-[1,2,4]triazol-1-yl)thiophene-2-carboxylic acid], for which the IC50 is 5.6 nM.

For the compound `COc1cc(F)c(C(Nc2ccc(C(=N)N)cc2)c2nn(-c3[nH]ncc3C(=O)O)c(=O)[nH]2)cc1OC` (stereo not shown) [Example 157, 5-{3-[(4-carbamimidoylphenylamino)-(2-fluoro-4,5-dimethoxyphenyl)methyl]-5-oxo-4,5-dihydro-[1,2,4]triazol-1-yl}-1H-pyrazole-4-carboxylic acid], it took 59.4 nM to reach half-maximal inhibition (IC50).

Turning to `C=CCOc1cc(COC)cc(C(Nc2ccc(C(=N)N)cc2)c2nn(-c3ncccn3)c(=O)[nH]2)c1` (racemic) [Example 85, 4-{[(R) and (S)-(3-allyloxy-5-methoxymethylphenyl)-(5-oxo-1-pyrimidin-2-yl-4,5-dihydro-1H-[1,2,4]triazol-3-yl)methyl]amino}benzamidine acetate], the IC50 is 15.3 nM.

For the compound `COc1cc(OCCN(C)C)cc(C(Nc2ccc(C(=N)N)cc2)c2nn(-c3ncccn3)c(=O)[nH]2)c1` (racemic) [Example 8, (R) and (S)-4-({[3-(2-dimethylaminoethoxy)-5-methoxyphenyl]-(5-oxo-1-pyrimidin-2-yl-4,5-dihydro-1H-[1,2,4]triazol-3-yl)methyl}amino)benzamidine diacetate], inhibition was half-maximal at 22.6 nM (IC50).

As for `COc1cc(F)c(C(Nc2ccc(C(=N)N)cc2F)c2nn(-c3ncccn3)c(=O)[nH]2)cc1OC` (racemic) [Example 236, 3-Fluoro-4-{[(R) and (S)-(2-fluoro-4,5-dimethoxyphenyl)-(5-oxo-1-pyrimidin-2-yl-4,5-dihydro-1H-[1,2,4]triazol-3-yl)methyl]amino}benzamidine acetate], the IC50 was found to be 11.8 nM.

`COc1cc(F)c(C(Nc2ccc(C(=N)N)cc2)c2nn(-c3ncccc3N)c(=O)[nH]2)cc1OC` (stereo not shown) [Example 138, 4-({[1-(3-aminopyridin-2-yl)-5-oxo-4,5-dihydro-1H-[1,2,4]triazol-3-yl]-(2-fluoro-4,5-dimethoxyphenyl)methyl}amino)benzamidine trifluoroacetate] had an IC50 of 17 nM.

`C#Cc1cc(O[C@H]2CCOC2)cc(C(Nc2ccc(C(=N)N)cc2)c2nn(-c3ncccn3)c(=O)[nH]2)c1` (mixture of isomers) [Example 45(2), 4-[((R) and (S)-{3-ethynyl-5-[(S)-(tetrahydrofuran-3-yl)oxy]phenyl}-(5-oxo-1-pyrimidin-2-yl-4,5-dihydro-1H-[1,2,4]triazol-3-yl)methyl)amino]benzamidine acetate] gave an IC50 of 1.5 nM.

Turning to `COc1cc(F)c(C(Nc2ccc(C(=N)N)cc2)c2nn(-c3ccccc3N)c(=O)[nH]2)cc1OC` (stereo not shown) [Example 107, 4-({[1-(2-aminophenyl)-5-oxo-4,5-dihydro-1H-[1,2,4]triazol-3-yl]-(2-fluoro-4,5-dimethoxyphenyl)methyl}amino)benzamidine trifluoroacetate], inhibition was half-maximal at 4.3 nM (IC50).

`COc1cc(OCF)cc(C(Nc2ccc(C(=N)N)cc2)c2nn(-c3ncccn3)c(=O)[nH]2)c1` (racemic) [Example 104, 4-{[(R) and (S)-(3-fluoromethoxy-5-methoxyphenyl)-(5-oxo-1-pyrimidin-2-yl-4,5-dihydro-1H-[1,2,4]triazol-3-yl)methyl]amino}benzamidine acetate] registered an IC50 of 8.9 nM.

With `CCOc1ccc(F)c(C(Nc2ccc(C(=N)N)cc2)c2nn(-c3ncccn3)c(=O)[nH]2)c1` (racemic) [Example 96, 4-{[(R) and (S)-(5-ethoxy-2-fluorophenyl)-(5-oxo-1-pyrimidin-2-yl-4,5-dihydro-1H-[1,2,4]triazol-3-yl)methyl]amino}benzamidine acetate], the IC50 was 17 nM.
